Consider two compounds from US20100184814A1, “Ester Derivatives of Losartan, Methods for Their Preparation, and Uses Thereof” (priority 2009, published 2010).

The nature of series [1]: Pharmacokinetic study: plasma compound (II) (Losartan) after oral dosing of compounds of formula (I). The note with it: male Kumin mice, fasted, single oral gavage dose 5.8 mg/kg referenced to compound (II). It counts as in vivo. The procedure: Pharmacokinetic studies. The pharmacokinetics (PK) of compounds of formula (I) as well as Losartan were investigated in male Kumin mice. There were six mice per group and nine groups for this study. All mice were fasted overnight, following a single dose of 5.8 mg/kg referenced to the amount of metabolite, the compound of formula (2) from every compound of formula (1) studied. All mice were given dosing orally by gavage. The dosing vehicle used was propyleneglycol:water (1:1). The mice were fed 4 h post dose. Blood samples were collected at 0, 15, 30, 45 min, 1, 2, 4, 7, 10 and 15 h oral dosing. Approximately […] of blood was collected from the jugular vein in tubes containing EDTA, and plasma was obtained by centrifugation. Plasma samples were stored at −20° C. until analysis. Samples were analyzed for the compound of formula (II), (1-((2′-(2H-tetrazol-5-yl)biphenyl-4-yl)methyl)-2-butyl-4-chloro-1H-imidazol-5-yl)methanol, by LC/MS/MS.

For series [2] the following is noted: background statement on Losartan; cited from earlier work.
Where [3] appears, read: compound (II) (Losartan) measured in plasma.

As to `CCCCc1nc(Cl)c(COC(=O)CN)n1Cc1ccc(-c2ccccc2-c2nn[nH]n2)cc1` [Compound (118), (S)-(1-((2′-(2H-tetrazol-5-yl)biphenyl-4-yl)methyl)-2-butyl-4-chloro-1H-imidazol-5-yl)methyl 2-aminoacetate], in series [1] (setting [3]), the “Bioavailability of compound (II)” value is 19% and the “Half-time (T1/2) of compound (II)” value was found to be 1.9 h. Further, in series [1] (compound (II) (Losartan) measured in plasma by LC/MS/MS, read-out: Maximum Blood Concentration (Cmax) of compound (II)), the Cmax amounted to 504 nM.

As for `CCCCc1nc(Cl)c(CO)n1Cc1ccc(-c2ccccc2-c2nn[nH]n2)cc1` [Losartan, (1-((2′-(2H-tetrazol-5-yl)biphenyl-4-yl)methyl)-2-butyl-4-chloro-1H-imidazol-5-yl)methanol], in series [2], the bioavailability is recorded as 25-35% and the half-life is 1 to 2 h.
